Test systems include NCI-H226 lung; PC-3 prostate; SK-OV-3 ovarian; OVCAR-4 ovarian; HT29 colon; KM12 colon; K-562 leukemia; HCC-2998 colon; A498 renal; HOP-62 NSCLC; IGROV1 ovarian; HCT-116 colon; HCT-15 colon; MCF7 breast.
Common to all, as to assay: NCI-60 cell line screen, 48 h

“And” between values parts separate entries of the source, which are not always exact repeats. Equal values may be shown once.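 96-well plates; 48 h exposure; 5 concentrations. Endpoints by linear interpolation between flanking doses. Not reached: highest tested concentration assigned. At the GI50, growth is halved. TGI: total growth inhibition.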 *1 amine or outer side, *2 acyl side, *3 side chain or, on linkers, in order; H or OH if unused. Where a SMILES comes first, the peptide text is derived from it. Bridges are numbered along the chain shown (N, C = ends). Roman numbers before positions name the chains, in order. [ ]: non-standard residue; d: D form. Actinocin(1to9) = Cc1c2oc3c(C)ccc(C(=O)[*:2])c3nc-2c(C(=O)[*:1])c(N)c1=O; NMeV = CN[CH](C(=O)O)C(C)C; Sar = CNCC(=O)O

For the compound `COc1ccc(CC2NC(=O)C(NC(=O)c3c4nc5c(C(=O)NC6C(=O)NC(Cc7ccc(OC)cc7)C(=O)N7CCCC7C(=O)N(C)CC(=O)N(C)C(C(C)C)C(=O)OC6C)ccc(C)c5oc-4c(C)c(=O)c3N)C(C)OC(=O)C(C(C)C)N(C)C(=O)CN(C)C(=O)C3CCCN3C2=O)cc1` (centres undefined) (I: TY(Me)P[Sar][NMeV] / II: TY(Me)P[Sar][NMeV]; ester I:1-I:C, II:1-II:C; linker I:N-II:N via Actinocin(1to9); configuration not given here), the GI50 is below 0.001 µM in the test with NCI-H226 lung, 0.0138 µM in the test with OVCAR-4 ovarian and 0.013 µM in the test with HCC-2998 colon. Further, the TGI in the test with NCI-H226 lung was 0.0228 µM and 0.0527 µM; in the test with PC-3 prostate, 0.355 µM and 0.212 µM; in the test with SK-OV-3 ovarian, 12.6 µM; in the test with OVCAR-4 ovarian it was 0.49 µM and 0.224 µM; in the test with HT29 colon it was 0.0174 µM and 0.0463 µM; in the test on KM12 colon, 1.06 µM. Further, the TGI with K-562 leukemia is 0.0708 µM; with A498 renal, 0.0242 µM; in the test on HOP-62 NSCLC it was 0.0405 µM and 0.236 µM.

On to `CC12CCC(=O)N1[C@@H](c1ccccc1)[C@@H](c1ccccc1)O2` (some centres undefined), for which the TGI in the test with IGROV1 ovarian, in the test on NCI-H226 lung, in the test with SK-OV-3 ovarian, with HCT-116 colon, in the test with OVCAR-4 ovarian and in the test on HT29 colon was above 100 µM each time. Also, the TGI in the test with KM12 colon, in the test on K-562 leukemia, in the test on HCT-15 colon, in the test with HCC-2998 colon, with A498 renal and in the test on HOP-62 NSCLC was above 100 µM throughout.

As to `C=CCc1cc(OC)c(O)c(C(=O)/C=C/c2ccc(OC)c(OC)c2)c1`, the TGI is above 100 µM in the test with IGROV1 ovarian; 64.9 µM with SK-OV-3 ovarian; 27.6 µM in the test on HCT-116 colon; 34.9 µM with OVCAR-4 ovarian; 33.1 µM in the test on HT29 colon; 44.9 µM with KM12 colon. Moreover, the TGI is 41.8 µM in the test on K-562 leukemia, 38.6 µM in the test on HCC-2998 colon and 39.7 µM with A498 renal.

Consider `O=S(=O)(Cc1ccccc1)c1nnc(S(=O)(=O)c2ccc(Cl)cc2)s1`, for which the TGI with PC-3 prostate is 46.7 µM; in the test on SK-OV-3 ovarian, 47.8 µM; in the test with HCT-116 colon it was 36 µM; with OVCAR-4 ovarian, above 100 µM; in the test on HT29 colon, 60.7 µM; in the test with KM12 colon, above 100 µM. Moreover, the TGI was above 100 µM with MCF7 breast; above 100 µM in the test on K-562 leukemia; 39.8 µM in the test on HCT-15 colon; 43.6 µM in the test on A498 renal; 47.3 µM in the test on HOP-62 NSCLC.

For the compound `CC1=CP(=O)(OC(C)C)C=C(C)C1=C(Cl)Cl` (centres undefined), the TGI with IGROV1 ovarian was above 100 µM; in the test with NCI-H226 lung, 87.2 µM; in the test with SK-OV-3 ovarian, 33.4 µM; with HCT-116 colon it was 70.5 µM; in the test on OVCAR-4 ovarian it was above 100 µM; with HT29 colon, above 100 µM. The TGI in the test on KM12 colon was 53.7 µM; in the test on K-562 leukemia, above 100 µM; in the test with HCT-15 colon, above 100 µM; in the test with HCC-2998 colon, above 100 µM; in the test with HOP-62 NSCLC it was above 100 µM.

`CCCCN(CCCC)CC(C(=O)Nc1ccc([N+](=O)[O-])cc1[N+](=O)[O-])/C(C)=N\NC(=O)c1ccncc1` (centres undefined): the TGI with IGROV1 ovarian, in the test with SK-OV-3 ovarian, in the test on OVCAR-4 ovarian, with K-562 leukemia, in the test with HCT-15 colon and with HCC-2998 colon was above 100 µM throughout. In addition, the TGI in the test with A498 renal and in the test with HOP-62 NSCLC was above 100 µM throughout.

With `CCN(CC)CC(C(C)=O)C(c1ccccc1)c1c(O)c2ccccc2oc1=O` (centres undefined), the TGI in the test with IGROV1 ovarian, in the test on NCI-H226 lung, in the test on SK-OV-3 ovarian, in the test on HCT-116 colon, in the test on OVCAR-4 ovarian and in the test on HT29 colon was above 100 µM in each case. The TGI in the test on KM12 colon, in the test on K-562 leukemia, with HCT-15 colon, with HCC-2998 colon, in the test with A498 renal and in the test with HOP-62 NSCLC was above 100 µM each time.

As to `Cc1ccc(S(=O)(=O)NC(=O)NC(CCCCN)C(=O)O)cc1` (centres undefined), the TGI in the test on IGROV1 ovarian, with PC-3 prostate, in the test with SK-OV-3 ovarian, with HCT-116 colon, in the test on OVCAR-4 ovarian and in the test on KM12 colon was above 100 µM in each case. Besides, the TGI in the test with MCF7 breast, with K-562 leukemia, with HCT-15 colon and in the test on HOP-62 NSCLC was above 100 µM in each case.

Consider `O=C1C=C(Nc2cc(Cl)ccc2Cl)c2ccccc2C1=O`, for which the TGI is above 100 µM in the test with IGROV1 ovarian; 47.8 µM in the test on NCI-H226 lung; above 100 µM in the test on SK-OV-3 ovarian; above 100 µM in the test on HCT-116 colon; above 100 µM with OVCAR-4 ovarian; above 100 µM in the test with HT29 colon. Further, the TGI with KM12 colon was 55.7 µM; in the test on K-562 leukemia it was 36.8 µM; in the test with HCT-15 colon, above 100 µM; in the test with HCC-2998 colon, above 100 µM; in the test on A498 renal, 52 µM; in the test on HOP-62 NSCLC, 72.9 µM.

In the case of `CC(=O)NNc1nc(C)c(C(=O)/C=C/c2ccc(N(C)C)cc2)s1`, the TGI in the test on IGROV1 ovarian, with NCI-H226 lung, in the test on SK-OV-3 ovarian, in the test on HT29 colon, with KM12 colon and in the test with K-562 leukemia was above 100 µM throughout. For the same compound, the TGI in the test with HCT-15 colon, in the test on HCC-2998 colon, in the test with A498 renal and with HOP-62 NSCLC was above 100 µM in each case.

On to `COc1ccc(N=Nc2c(-c3ccccc3)nn(C(=O)CC(=O)Nc3ccc(OC)cc3)c2-c2ccccc2)cc1`, for which the TGI in the test on IGROV1 ovarian, in the test with NCI-H226 lung, with SK-OV-3 ovarian, with HCT-116 colon, in the test on OVCAR-4 ovarian and in the test with HT29 colon was above 100 µM in each case. The TGI with KM12 colon, in the test with K-562 leukemia, in the test on HCT-15 colon, in the test with HCC-2998 colon, in the test on A498 renal and in the test with HOP-62 NSCLC was above 100 µM each time.

Source of the values: PubChem BioAssay (NCI).
